Assay [1] concerns arthritic mice (collagen-induced arthritis model). As to the kind of experiment: Serum anti-bCII IgG antibodies (ELISA), CIA mice third study. The assay is classed as in vivo, mouse. Particulars: end of treatment. As for the experimental part:
In a third study, mice were randomised into the following treatment groups: naive, vehicle, 30 mg/kg CR6086, 1 or 3 mg/kg MTX, with the latter administered alone or in combination with 30 mg/kg CR6086. CR6086 was administered orally once daily. MTX was administered intraperitoneally three times per week (every third day). Mice were treated with test drugs for 16 days.
At the end of the treatment period, animals were killed, and their paws were explanted and processed for histology. In the third study, the serum concentrations of immunoglobulin G (IgG) antibodies against bCII were measured by ELISA (catalogue number 2032; Chondrex, Redmond, WA, USA).

The test system is the same in assay [2]. As to the kind of experiment: CIA in mice, third study (CR6086, MTX, combination): clinical score, oedema, histology. The assay is classed as in vivo, mouse. The conditions noted are these: for CLINICAL SCORE (interquartile range): median (IQR).
The test system of assay [3] is arthritic rats (collagen-induced arthritis model). As to the kind of experiment: Mechanical hyperalgesia (PAM) in CIA rats. The assay is classed as in vivo, rat. Particulars: 15 mg/kg, mean ± SEM. As for the experimental part:
(§1) Male Lewis rats were immunised by intradermal injection at the base of the tail with an emulsion containing 150 μg of bovine collagen type II (bCII) in complete Freund’s adjuvant (CFA) or received an injection with incomplete Freund’s adjuvant (sham group). Three weeks after the first immunisation, animals were boosted with the same procedure. Three days after booster injection, arthritis had developed in all animals but the sham group. Oedema was assessed via plethysmometer (Ugo Basile, Varese, Italy), and the animals were then randomised to treatment groups. Oedema measurement was performed again after 7 and 14 days of treatment. Animals were blindly scored by two different investigators for clinical signs of arthritis (redness, swelling, pain of hind limb joints) as follows: 0 = normal; 1 = mild but definite redness and swelling of the ankle or wrist or individual digits, regardless of the number of affected digits; 2 = moderate redness and swelling of ankle or wrist; 3 = severe redness and swelling of the entire paw including digits; and 4 = maximally inflamed limb with involvement of multiple joints. The mean of the scores assigned by the investigators was calculated.
In the comparative experiment vs rofecoxib, mechanical hyperalgesia was assessed at the end of treatment by using a digital pressure application measurement (PAM) device (Ugo Basile). Increasing pressure was applied to the lateral side of the knee until the animal attempted to escape or vocalised. The force required to elicit this response was measured in grams (gram-force). An optimal stimulus increase rate of 100 g/second was used, and mechanical thresholds were reached after approximately 10 seconds. This increase was visualised with a rate meter on the built-in display, so the pressure applied was visually controlled. At the end of the experiment, animals were killed, and their hind paws were explanted and processed for histology.

For assay [4] the test system is unchanged. As to the kind of experiment: Collagen-induced arthritis in rats: clinical score, oedema, histology. The format is in vivo, rat. Particulars: 15 mg/kg once daily. As for the experimental part: as §1
Three different experiments in rat CIA are reported: a dose-response study, as well as two comparative studies vs the COX-2 inhibitor rofecoxib and the Janus kinase (JAK) inhibitor tofacitinib, respectively.
Briefly, the paws were fixed in 10% neutral buffered formalin (Bio-Optica, Milan, Italy) and subsequently decalcified in EDTA for 4 weeks. Samples were dehydrated in an ethanol series and embedded in paraffin. At least three non-consecutive sections for each paw were blindly scored at the level of the tarsus, metatarsus and calcaneus for the following histological features: synovial oedema, pannus, synovial inflammatory cell infiltrate, cartilage damage, osteolysis and woven bone. Based on these histological features, a synovial score (synovial oedema, plus synovial inflammatory cell infiltrate, plus pannus), a bone score (woven bone plus osteolysis) and a total score were calculated. Two independent pathologists performed histopathology on blinded slides. The data of right and left hind limbs were summed for each rat.

Assay [5] has as its system arthritic mice (collagen-induced arthritis model). As to the kind of experiment: CIA in mice, first study: clinical score and paw swelling. The format is in vivo, mouse. Particulars: 10 days; CR6086 30 and 60 mg/kg, naproxen 60 mg/kg oral once daily; etanercept 10 mg/kg i.p. every other day. As for the experimental part:
Male DBA/1 mice were immunised by intradermal injection at the base of the tail with an emulsion of 200 μg of bCII in CFA containing 3 mg/ml Mycobacterium tuberculosis. Non-immunised mice served as the negative control of disease. Animals were monitored by visual inspection for appearance of peripheral oedema. […] Upon onset, animals were recruited and randomised. Recruitment was given a cut-off at day 40. Upon recruitment, arthritis clinical score was assigned, and oedema was measured via caliper.
(§2) In a first study, mice were randomised into the following treatment groups: vehicle, 30 mg/kg CR6086, 60 mg/kg CR6086, 60 mg/kg naproxen and 10 mg/kg etanercept. Animals received the test drugs for 10 days. CR6086 and naproxen were administered orally once daily, whereas etanercept was administered intraperitoneally every other day. Animals treated with vehicle, 60 mg/kg CR6086, naproxen and etanercept were additionally analysed for the proportion of populations of Th17 cells, Th1 cells, regulatory T cells, B cells, macrophages, neutrophils and dendritic cells by fluorescence-activated cell sorting (FACS) after collection of blood, draining lymph nodes and joints.
Oedema measurement was performed every day before treatment, and all animals were blindly scored for clinical signs of arthritis as follows: 0 = normal; 1 = slight swelling and/or erythema; 2 = pronounced oedematous swelling; and 3 = ankyloses and severe swelling. A score of 0.5 was given to swollen toe/toes or when inflammation was localised to one part of the foot. Each limb was measured separately, with a final score based on the sum of the scores from all four paws.

The test system is the same in assay [6]. As to the kind of experiment: FACS analysis of cell populations in the joint, CIA mice. The format is in vivo, mouse. Particulars: CR6086 60 mg/kg, naproxen 60 mg/kg, etanercept 10 mg/kg, mean ± SEM. How it is done:
as §2

Marks after values point to notes of the source that are not given here.

`CN(Cc1cnc2nc(N)nc(N)c2n1)c1ccc(C(=O)N[C@@H](CCC(=O)O)C(=O)O)cc1` [MTX, methotrexate]: the “Anti-collagen II” value in assay [1] (1 mg/kg MTX) was 483.83 ± 102.82 µg/mL; in assay [1] (3 mg/kg MTX) it was 242.46 ± 79.35 µg/mL. In assay [2] (16 days, 30 mg/kg CR6086, 3 mg/kg MTX, alone or combined), the “effect on joint histopathology” value was “significantly improved all histological features of arthritis”. Moreover, the “CLINICAL SCORE (interquartile range)” value in assay [2] (DAY 0, 1 mg/kg MTX) is on record as 3.0 (2.4 – 3.3) *; in assay [2] (DAY 0, 3 mg/kg MTX), 2.0 (2.0 – 2.0) *; in assay [2] (DAY 1, 1 mg/kg MTX), 2.8 (2.0 – 3.0); in assay [2] (DAY 1, 3 mg/kg MTX), 2.3 (2.0 – 3.0); in assay [2] (DAY 2, 1 mg/kg MTX), 3.0 (3.0 – 4.0); in assay [2] (DAY 2, 3 mg/kg MTX) it was 3.0 (2.1 – 3.8). Also, the “CLINICAL SCORE (interquartile range)” value in assay [2] (DAY 3, 1 mg/kg MTX) is on record as 4.0 (3.0 – 4.8); in assay [2] (DAY 3, 3 mg/kg MTX) it was 3.0 (2.3 – 6.0); in assay [2] (DAY 4, 1 mg/kg MTX), 3.5 (3.0 – 5.5); in assay [2] (DAY 4, 3 mg/kg MTX), 4.0 (2.0 – 5.5); in assay [2] (DAY 5, 1 mg/kg MTX), 5.0 (3.4 – 6.3); in assay [2] (DAY 5, 3 mg/kg MTX), 3.5 (2.4 – 4.8). Moreover, the “CLINICAL SCORE (interquartile range)” value is listed as 4.8 (3.3 – 8.1) in assay [2] (DAY 6, 1 mg/kg MTX); 4.0 (2.0 – 5.5) in assay [2] (DAY 6, 3 mg/kg MTX); 4.5 (2.8 – 7.5) in assay [2] (DAY 7, 1 mg/kg MTX); 4.5 (2.6 – 6.0) in assay [2] (DAY 7, 3 mg/kg MTX); 5.5 (3.8 – 7.6) in assay [2] (DAY 8, 1 mg/kg MTX); 4.3 (2.4 – 6.4) in assay [2] (DAY 8, 3 mg/kg MTX). Moreover, the “CLINICAL SCORE (interquartile range)” value was 5.0 (3.3 – 7.0) in assay [2] (DAY 9, 1 mg/kg MTX); 4.5 (3.0 – 5.0) in assay [2] (DAY 9, 3 mg/kg MTX); 6.5 (3.0 – 7.3) in assay [2] (DAY 10, 1 mg/kg MTX); 5.0 (2.5 – 5.5) in assay [2] (DAY 10, 3 mg/kg MTX); 7.3 (4.4 – 7.5) in assay [2] (DAY 11, 1 mg/kg MTX); 5.0 (2.5 – 6.0) in assay [2] (DAY 11, 3 mg/kg MTX). Moreover, the “CLINICAL SCORE (interquartile range)” value was 6.8 (5.3 – 7.5) in assay [2] (DAY 12, 1 mg/kg MTX); 5.5 (2.0 – 7.5) in assay [2] (DAY 12, 3 mg/kg MTX); 6.3 (4.5 – 7.0) in assay [2] (DAY 13, 1 mg/kg MTX); 6.0 (2.0 – 7.0) in assay [2] (DAY 13, 3 mg/kg MTX); 7.3 (5.0 – 7.6) in assay [2] (DAY 14, 1 mg/kg MTX); 4.5 (2.0 – 6.0) in assay [2] (DAY 14, 3 mg/kg MTX). In addition, the “CLINICAL SCORE (interquartile range)” value was 6.5 (5.0 – 7.5) in assay [2] (DAY 15, 1 mg/kg MTX); 4.5 (3.1 – 7.0) in assay [2] (DAY 15, 3 mg/kg MTX); 6.5 (5.5 – 8.3) in assay [2] (DAY 16, 1 mg/kg MTX); 4.5 (2.3 – 5.4) in assay [2] (DAY 16, 3 mg/kg MTX).
In the case of `CS(=O)(=O)c1ccc(C2=C(c3ccccc3)C(=O)OC2)cc1` [rofecoxib, reference compound], the “Mechanical hyperalgesia, Day 0” value in assay [3] (Day 0) is reported as 943.70 ± 73.42^a gram-force. Further, in assay [3] (Day 7), the “Mechanical hyperalgesia, Day 7” value is given as 673.18 ± 53.76^b gram-force. In addition, the “Mechanical hyperalgesia, Day 14” value in assay [3] (Day 14) was 799.68 ± 61.15^b,c gram-force. Further, the “effect on clinical score” value in assay [4] is on record as “small effect”. In addition, the “effect on structural and inflammatory parameters (oedema, histology)” value in assay [4] (14 days) is “improved to a slight but significant extent the inflammatory parameters (not the structural ones)”.
Regarding etanercept, the “effect on disease parameters (visual clinical score, paw swelling) vs vehicle” value in assay [5] is on record as “significantly improved”. In assay [6], the “B cells, Percentage of total cells” value is reported as 5.74 ± 0.68%; the “Dendritic cells, Percentage of total cells” value is reported as 1.51 ± 0.18%; the “Macrophages, Percentage of total cells” value is 12.31 ± 5.19%; the “Neutrophils, Percentage of total cells” value is 10.53 ± 2.81%. In assay [6], the “Th1, Percentage of total cells” value is 0.20 ± 0.05^a %; the “Th17, Percentage of total cells” value came out at 0.16 ± 0.08%; the “Treg, Percentage of total cells” value came to 0.39 ± 0.10%.

The values above are taken from publication PMC5831858, “Pharmacological characterisation of CR6086, a potent prostaglandin E2 receptor 4 antagonist, as a new potential disease-modifying anti-rheumatic drug” (Arthritis Research & Therapy, 2018).
